From ChEMBL document CHEMBL1201862, “PubChem BioAssay data set” (2004)
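Each compound was tested at five concentrations against cells in 96-well plates for 48 hours. GI50: concentration for 50% inhibition of growth.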 Active and inactive are the calls of the source. Cut-off read from the data, not from the text of the source: active = GI50 up to about 1.1 µM and inactive = higher.

How the values were obtained:
Assay in all cases: NCI anticancer screen, dose series, 48 h
SK-MEL-28 = tested on: SK-MEL-28
SF-539 = tested on: SF-539
OVCAR-4 = tested on: OVCAR-4
HCT-15 = tested on: HCT-15
UACC-62 = tested on: UACC-62
PC-3 = tested on: PC-3
NCI-H460 = tested on: NCI-H460
OVCAR-8 = tested on: OVCAR-8
SK-OV-3 = tested on: SK-OV-3
NCI-H522 = tested on: NCI-H522
HOP-92 = tested on: HOP-92
LOX IMVI = tested on: LOX IMVI
SW-620 = tested on: SW-620
MDA-MB-435 = tested on: MDA-MB-435
ACHN = tested on: ACHN
A498 = tested on: A498
M14 = tested on: M14
NCI/ADR-RES = tested on: NCI/ADR-RES
HL-60 = tested on: HL-60
T47D = tested on: T47D

| Compound | GI50 (SK-MEL-28) | GI50 (SF-539) | GI50 (OVCAR-4) | GI50 (HCT-15) [µM] | GI50 (UACC-62) | GI50 (PC-3) | GI50 (NCI-H460) | GI50 (OVCAR-8) | GI50 (SK-OV-3) | GI50 (NCI-H522) | GI50 (HOP-92) | GI50 (LOX IMVI) | GI50 (SW-620) | GI50 (MDA-MB-435) | GI50 (ACHN) | GI50 (A498) | GI50 (M14) | GI50 (NCI/ADR-RES) | GI50 (HL-60) | GI50 (T47D) |
| --- | --- | --- | --- | --- | --- | --- | --- | --- | --- | --- | --- | --- | --- | --- | --- | --- | --- | --- | --- | --- |
| COc1cc(/C=C/C(C)=O)ccc1OP(=O)(O)O | > 100 µM (inactive) | > 100 µM (inactive) | > 100 µM (inactive) | > 100 | > 100 µM (inactive) | > 100 µM (inactive) | > 100 µM (inactive) | > 100 µM (inactive) | > 100 µM (inactive) | > 100 µM (inactive) | > 100 µM (inactive) | > 100 µM (inactive) | > 100 µM (inactive) | > 100 µM (inactive) | > 100 µM (inactive) | > 100 µM (inactive) | > 100 µM (inactive) | – | – | – |
| O=C(Cn1c2c(c3ccccc31)CCCC2)N1CCCC1 | > 100 µM (inactive) | 69.8 µM (inactive) | 27.4 µM (inactive) | 80.7 | 78.5 µM (inactive) | > 100 µM (inactive) | > 100 µM (inactive) | > 100 µM (inactive) | > 100 µM (inactive) | – | > 100 µM (inactive) | > 100 µM (inactive) | > 100 µM (inactive) | 77.1 µM (inactive) | > 100 µM (inactive) | 65 µM (inactive) | > 100 µM (inactive) | 96.4 µM (inactive) | 94.6 µM (inactive) | – |
| Cc1nc2ccccc2c(=O)n1NC(=O)c1ccc(N)cc1 | > 100 µM (inactive) | > 100 µM (inactive) | > 100 µM (inactive) | – | > 100 µM (inactive) | > 100 µM (inactive) | > 100 µM (inactive) | > 100 µM (inactive) | > 100 µM (inactive) | > 100 µM (inactive) | > 100 µM (inactive) | > 100 µM (inactive) | > 100 µM (inactive) | > 100 µM (inactive) | > 100 µM (inactive) | > 100 µM (inactive) | > 100 µM (inactive) | – | > 100 µM (inactive) | > 100 µM (inactive) |
| CCOC(=O)/C(=C\Nc1c(C)n(C)n(-c2ccccc2)c1=O)C(=O)c1ccccc1 | > 100 µM (inactive) | > 100 µM (inactive) | > 100 µM (inactive) | > 100 | > 100 µM (inactive) | > 100 µM (inactive) | > 100 µM (inactive) | – | > 100 µM (inactive) | > 100 µM (inactive) | > 100 µM (inactive) | > 100 µM (inactive) | > 100 µM (inactive) | > 100 µM (inactive) | > 100 µM (inactive) | > 100 µM (inactive) | > 100 µM (inactive) | – | > 100 µM (inactive) | > 100 µM (inactive) |
| COc1ccc(-n2nnnc2C2(Nc3ccccc3)CCN(Cc3ccccc3)CC2)cc1 | 13.5 µM (inactive) | 16.4 µM (inactive) | 21.3 µM (inactive) | 7.21 | 10.5 µM (inactive) | – | 11.2 µM (inactive) | 19 µM (inactive) | 13.6 µM (inactive) | – | 3.45 µM (inactive) | 9.29 µM (inactive) | 7.38 µM (inactive) | 3.29 µM (inactive) | 31.8 µM (inactive) | 12.8 µM (inactive) | 14.2 µM (inactive) | 7.35 µM (inactive) | 2.56 µM (inactive) | 14.7 µM (inactive) |
| CC1=C(C#N)C2C(=C(C)N1)C(N)=Nc1ccccc12 (stereo not drawn) | 63.4 µM (inactive) | 29.7 µM (inactive) | 37.4 µM (inactive) | 85.5 | 25.8 µM (inactive) | 29.6 µM (inactive) | 44.4 µM (inactive) | 55.6 µM (inactive) | 76.4 µM (inactive) | 30.8 µM (inactive) | 12.1 µM (inactive) | 36 µM (inactive) | 48.1 µM (inactive) | – | 47.6 µM (inactive) | 22.3 µM (inactive) | 36.4 µM (inactive) | > 100 µM (inactive) | 29.3 µM (inactive) | 31.4 µM (inactive) |
| CN(C)CCNC(=O)C1COc2cc(-c3cc(=O)c4ccccc4o3)ccc2O1 (stereo not drawn) | 19.5 µM (inactive) | 17.3 µM (inactive) | 17.8 µM (inactive) | 27.7 | 18.8 µM (inactive) | – | 38.2 µM (inactive) | 23.6 µM (inactive) | 23.1 µM (inactive) | 16.6 µM (inactive) | > 100 µM (inactive) | 19.6 µM (inactive) | 18.2 µM (inactive) | – | 16.9 µM (inactive) | 19 µM (inactive) | 18.1 µM (inactive) | – | 23.9 µM (inactive) | – |
| COc1ccc(/C(Cl)=C(\C=N/O)c2ccc(OC)c(OC)c2)cc1OC | > 100 µM (inactive) | > 100 µM (inactive) | > 100 µM (inactive) | 82 | > 100 µM (inactive) | – | > 100 µM (inactive) | > 100 µM (inactive) | > 100 µM (inactive) | > 100 µM (inactive) | 63.4 µM (inactive) | > 100 µM (inactive) | > 100 µM (inactive) | – | > 100 µM (inactive) | > 100 µM (inactive) | 51.3 µM (inactive) | – | > 100 µM (inactive) | – |
| C1=NN2C(c3ccccc3)=NOC2C2C(c3ccccc3)=NOC12 (stereo not drawn) | – | > 100 µM (inactive) | – | > 100 | > 100 µM (inactive) | > 100 µM (inactive) | > 100 µM (inactive) | > 100 µM (inactive) | > 100 µM (inactive) | 42.9 µM (inactive) | – | > 100 µM (inactive) | – | – | 98.6 µM (inactive) | – | > 100 µM (inactive) | 97.9 µM (inactive) | – | – |
| Cc1ccc(S(=O)(=O)N2CCC2c2ccccc2)cc1 (stereo not drawn) | > 100 µM (inactive) | > 100 µM (inactive) | 46.6 µM (inactive) | > 100 | 76.7 µM (inactive) | – | > 100 µM (inactive) | > 100 µM (inactive) | > 100 µM (inactive) | 74 µM (inactive) | 10.1 µM (inactive) | > 100 µM (inactive) | > 100 µM (inactive) | – | > 100 µM (inactive) | > 100 µM (inactive) | > 100 µM (inactive) | – | 7.13 µM (inactive) | – |
| COc1ccc(/C=C/[N+](=O)[O-])cc1 | 5.81 µM (inactive) | 1.66 µM (inactive) | 16.7 µM (inactive) | 3.7 | 14.9 µM (inactive) | – | 6.9 µM (inactive) | 2.67 µM (inactive) | – | 20.4 µM (inactive) | – | 2.13 µM (inactive) | 2.83 µM (inactive) | 1.86 µM (inactive) | 7.48 µM (inactive) | 5.15 µM (inactive) | 2.79 µM (inactive) | 30.7 µM (inactive) | 2.77 µM (inactive) | – |
| O=c1[nH]c(=O)n([C@@H]2O[C@H](CO)[C@@H](O)[C@@H]2F)cc1I [FIALURIDINE] | > 100 µM (inactive) | > 100 µM (inactive) | > 100 µM (inactive) | > 100 | > 100 µM (inactive) | – | 24 µM (inactive) | > 100 µM (inactive) | > 100 µM (inactive) | > 100 µM (inactive) | > 100 µM (inactive) | 46.3 µM (inactive) | > 100 µM (inactive) | > 100 µM (inactive) | > 100 µM (inactive) | 59.4 µM (inactive) | 77.6 µM (inactive) | > 100 µM (inactive) | > 100 µM (inactive) | > 100 µM (inactive) |
